Legend:
[1] = system: S. pneumoniae; assay: Antibacterial activity; assay type: cell-based; settings: Streptococcus pneumoniae
[2] = system: S. pyogenes; assay: Antibacterial activity; assay type: cell-based; settings: Streptococcus pyogenes
[3] = system: Gram-negative bacteria; settings: general statement, no reference given; cited from earlier work

For `C=C(NC(=O)C(=C)NC(=O)c1csc(C2=N[C@@H]3c4csc(n4)[C@H]4NC(=O)c5csc(n5)[C@H]([C@](C)(O)[C@@H](C)O)NC(=O)[C@H]5CSC(=N5)/C(=C/C)NC(=O)[C@H]([C@@H](C)O)NC(=O)c5csc(n5)[C@]3(CC2)NC(=O)[C@H](C)NC(=O)C(=C)NC(=O)[C@H](C)NC(=O)[C@H]([C@@H](C)CC)N[C@@H]2C=Cc3c([C@H](C)O)cc(nc3[C@H]2O)C(=O)O[C@@H]4C)n1)C(N)=O` [Compound 1, Thiostrepton], the MIC [1] is listed as < 1 ng/mL, the MIC [2] is listed as < 1 ng/mL and the “activity against Gram-negative bacteria” value [3] is listed as “inactive”.

Reference: PMC6940514 (Angewandte Chemie (International ed. in English), 2019)
